According to PMC6175828, “C16-ceramide is a natural regulatory ligand of p53 in cellular stress response” (Nature Communications, 2018):

Tests used:
p53 [1] = biological target: T1, p53 (Homo sapiens, UniProt P04637); test: UV photo-crosslinking, MALDI-TOF MS and LC-MS/MS site mapping; thermal shift (Tm […] to […] °C); format: binding; design: gene TP53; DBD, residues 100–300
p53 [2] = biological target: T2, p53 (Homo sapiens, UniProt P04637, S241A); test: binding test of p53 mutant (Supplementary Figure […]), qualitative
T2 construct: gene TP53; full-length

p53 [3] = biological target: T3, p53 (Homo sapiens, UniProt P04637, R175H); test: binding test of p53 mutant (Supplementary Figure 4a), qualitative
T3 construct: gene TP53

p53 [4] = biological target: T1, p53; test: intrinsic tyrosine fluorescence quenching titration of purified p53 DBD; PVDF membrane-binding assay; design: gene TP53
p53 [5] = biological target: T4, p53 (Homo sapiens, UniProt P04637, S240E); test: binding test of p53 mutant (Supplementary Figure […]), qualitative
T4 construct: gene TP53; full-length

p53 [6] = biological target: T1, p53; test: PVDF membrane-binding assay with purified p53; p53 immunoprecipitation with LC-MS/MS of bound ceramide; design: gene TP53; purified recombinant p53; endogenous p53 pulled down from A549 cells

In the case of `C#CCCCC1(CCCCCCCCC(=O)N[C@@H](CO)[C@H](O)/C=C/CCCCCCCCCCCCC)N=N1` [PAC, N-(9-(3-pent-4-ynyl-3-H-diazirin-3-yl)-nonanoyl)-D-erythro-sphingosine], the “UV photo-crosslinking, MALDI-TOF MS and LC-MS/MS site mapping; thermal shift (Tm)” value (p53 [1]) is reported as “LC-MS/MS data revealed two ceramide-modified residues, Ser240 and Ser241 (Fig. 3b), in the PAC-modified sample only”.

For `CCCCCCCCCCCCC/C=C/[C@@H](O)[C@H](CO)NC(=O)CCCCCCCCCCCCCCC[n+]1ccccc1` [PC16, D-erythro-2-N-[16′-(1′′-pyridinium)-hexadecanoyl]-sphingosine bromide], the “binding test of p53 mutant (Supplementary Figure 4), qualitative” value (p53 [2]) was “substitutions with aa having shorter side chains (S241A or S240E) did not affect the binding”, the “binding test of p53 mutant (Supplementary Figure 4a), qualitative” value (p53 [3]) was “R175H, did not affect the binding of PC16 to p53 (Supplementary Figure 4a)” and the Kd (p53 [4]) was about 0.06 µM. For the same molecule, the “binding test of p53 mutant (Supplementary Figure 4), qualitative” value (p53 [5]) was “substitutions with aa having shorter side chains (S241A or S240E) did not affect the binding”.

In the case of `CCCCCCCCCCCCC/C=C/[C@@H](O)[C@H](CO)NC(=O)CCCCCCCCCCCCCCC` [C16-ceramide, N-(hexadecanoyl)-sphing-4-enine], the “PVDF membrane-binding assay with purified p53; p53 immunoprecipitation with LC-M” value (p53 [6]) is reported as “these experiments demonstrated the strong preference of p53 for C16-ceramide”.
